Key:
Type in all cases: cell-based
E. coli EC_25922 = assay: checkerboard combination, clinical bacterial isolates (FIC)
Description: (§1) The combination experiments were performed and the results were interpreted using the checkerboard method as described in Eliopoulous, G. M., and R. C. Moellering, 1996, Antimicrobial combinations, p. 330-396, In V. Lorian (ed.), Antibiotics in laboratory medicine, 4th ed., The Williams & Wilkins Co., Baltimore, Md., in 96-well microtiter plates. Compound A was serially diluted along the x-axis of the test plate to a final volume of 50 μl, and compound B was serially diluted in a separate transfer plate. Dilutions in both plates were made in CAMHB (cation-adjusted Mueller Hinton broth) for Staphylococci and in CAMHB+5% sheep blood for Streptococci. Aliquots (50 μl) of Compound B were transferred to the test plate along the y-axis thereby achieving a checkerboard matrix of antimicrobial combinations (100 μl total volume) as in FIG. 4. The first column and last row (shaded in FIG. 4) contained only compound B or compound A, respectively. Plates were then inoculated with 10 μl of the test microorganism and MICs were determined according to NCCLS guidelines (see National Committee for Clinical Laboratory Standards, 2000, Methods for Dilution Antimicrobial Susceptibility Tests for Bacteria That Grow Aerobically—Fifth Edition, Approved Standard M7-A5, NCCLS, Wayne, Pa., USA.)
(§2) Data analysis was performed as follows and according to Eliopoulous, G. M., and R. C. Moellering, 1996, Antimicrobial combinations, p. 330-396, In V. Lorian (ed.), Antibiotics in laboratory medicine, 4th ed., The Williams & Wilkins Co., Baltimore, Md. First individual FIC values for each combination in a plate were calculated: FIC(Fractional Inhibitory Concentration)=FICA+FICB • FICA=MICA+B/MICA i.e. the MIC of combination of compound A+compound B divided by the MIC of compound A alone. • FICB=MICB+A/MICB i.e. the MIC of combination of compound B+compound A divided by the MIC of compound B alone.
(§3) FIC values were calculated only for combinations that enabled determination of a true MIC (e.g. not > or <=values). FIC indexes were then calculated as the average of individual FIC values for each combination plate.

E. faecalis EF_A6221420 = assay: as above; details: E. faecalis EF_A6221420 (VRE)
Description: as §1, §2, §3

H. influenzae HI_49247 = assay: as above; details: compound G with Azithromycin
Description: as §1, §2, §3

P. aeruginosa PA_27853 = assay: as above
Description: as §1, §2, §3

S. aureus SA_29213 = assay: as above; details: S. aureus SA_29213 (MSSA)
Description: as §1, §2, §3

S. aureus SA_A6250596 = assay: as above; details: S. aureus SA_A6250596 (MRSA-MDR)
Description: as §1, §2, §3

S. aureus SA_A7080336 = assay: as above; details: S. aureus SA_A7080336 (MRSA)
Description: as §1, §2, §3

[1] = system: S. epidermidis SE_A7100750; assay: as above; details: S. epidermidis SE_A7100750 (MRSE CipR)
Description: as §1, §2, §3

S. mitis SMI_116 = assay: as above
Description: as §1, §2, §3

S. pneumoniae SP_22257 = assay: as above; details: compound G with Azithromycin; S. pneumoniae SP_22257 (PenR EryS ClinS)
Description: as §1, §2, §3

S. pneumoniae SP_22425 = assay: as above; details: S. pneumoniae SP_22425 (PenR EryR ClinR)
Description: as §1, §2, §3

S. pyogenes SPY_20015 = assay: as above; details: compound G with Gatifloxacin
Description: as §1, §2, §3

S. pyogenes SPY_20061 = assay: as above; details: S. pyogenes SPY_20061 (EryS)
Description: as §1, §2, §3

E. faecalis A6221420 = assay: Combination Time-kill kinetics; details: alone or with Meropenem 4 × MIC (16 ug/ml)
Description: As used herein, “synergy” refers to the in vitro effect of administration of a combination of an antibacterial agent such as a Fab I inhibiter, and antiinfective agent such that (1) the fractional inhibitory concentration (FIC) is less than or equal to 0.5 in an FIC assay described herein; or (2) there is at least a 100-fold (2 log10) increase in killing at 24 hours for the combination as compared with the bioactive agent alone in a time kill curve assay as described herein. An FIC of ≦0.5 is evidence of synergy. An additive response has an FIC value of >0.5 and less than or equal to 1, while an indifferent response has an FIC value of >1 and ≦2. An additive effect may still indicate that the combination of bioactive agent and cationic peptide are therapeutically useful.

[2] = system: major pathogenic species tested; assay: Checkerboard combination studies of compound G and commercial antibiotics (FIG. 7); details: all major pathogenic species tested
Description: Checkerboard experiments were performed and analyzed according to standard procedures as outlined below.

Cc1c(CN(C)C(=O)/C=C/c2cnc3c(c2)CCC(=O)N3)oc2ccccc12 [Compound G, (E)-N-methyl-N-(3-methylbenzofuran-2-ylmethyl)-3-(7-oxo-5,6,7,8-tetrahydro-1,8-naphthyridin-3-yl)acrylamide]
5.12 logCFU/ml: logCFU/ml at Time (hr): 0 (E. faecalis A6221420; Compound G 1 ug/ml)
did not show antagonism: antagonism in compound G combinations [2]
1: FIC (S. aureus SA_29213; compound G with Meropenem) | FIC (S. aureus SA_A6250596; compound G with Gatifloxacin) | FIC (S. aureus SA_A6250596; compound G with Levofloxacin) | FIC ([1]; compound G with Ceftriaxone)
0.7: FIC (E. coli EC_25922; compound G with Ceftriaxone) | FIC (S. aureus SA_29213; compound G with Penicillin)
5.10 logCFU/ml: logCFU/ml at Time (hr): 0 (E. faecalis A6221420; Compound G 0.03 ug/ml)
6.53 logCFU/ml: logCFU/ml at Time (hr): 4 (E. faecalis A6221420; Compound G 1 ug/ml)
6.42 logCFU/ml: logCFU/ml at Time (hr): 4 (E. faecalis A6221420; Compound G 0.03 ug/ml)
9.91 logCFU/ml: logCFU/ml at Time (hr): 24 (E. faecalis A6221420; Compound G 0.03 ug/ml) | logCFU/ml at Time (hr): 24 (E. faecalis A6221420; Compound G 1 ug/ml)
9.76 logCFU/ml: logCFU/ml at Time (hr): 8 (E. faecalis A6221420; Compound G 1 ug/ml)
4.79 logCFU/ml: ΔlogCFU/ml (24-0 hr) (E. faecalis A6221420; Compound G 1 ug/ml)
4.81 logCFU/ml: ΔlogCFU/ml (24-0 hr) (E. faecalis A6221420; Compound G 0.03 ug/ml)
6.03 logCFU/ml: logCFU/ml at Time (hr): 2 (E. faecalis A6221420; Compound G 0.03 ug/ml)
5.93 logCFU/ml: logCFU/ml at Time (hr): 2 (E. faecalis A6221420; Compound G 1 ug/ml)
9.88 logCFU/ml: logCFU/ml at Time (hr): 8 (E. faecalis A6221420; Compound G 0.03 ug/ml)
0.6: FIC (E. coli EC_25922; compound G with Meropenem) | FIC (S. aureus SA_29213; compound G with Azithromycin) | FIC (S. aureus SA_A7080336; compound G with Gatifloxacin) | FIC (S. aureus SA_A7080336; compound G with Levofloxacin) | FIC ([1]; compound G with Meropenem)
<2: FIC (E. coli EC_25922; compound G with Gatifloxacin) | FIC (E. faecalis EF_A6221420; compound G with Ceftriaxone) | FIC (E. faecalis EF_A6221420; compound G with Gatifloxacin) | FIC (E. faecalis EF_A6221420; compound G with Levofloxacin) | FIC (E. faecalis EF_A6221420; compound G with Meropenem) | FIC (H. influenzae HI_49247) | FIC (P. aeruginosa PA_27853; compound G with Gatifloxacin) | FIC (P. aeruginosa PA_27853; compound G with Meropenem) | FIC (S. aureus SA_29213; compound G with Ceftriaxone) | FIC (S. aureus SA_29213; compound G with Cefuroxime) | FIC (S. aureus SA_A6250596; compound G with Azithromycin) | FIC (S. aureus SA_A6250596; compound G with Ceftriaxone) | FIC (S. aureus SA_A6250596; compound G with Cefuroxime) | FIC (S. aureus SA_A6250596; compound G with Meropenem) | FIC (S. aureus SA_A6250596; compound G with Penicillin) | FIC ([1]; compound G with Gatifloxacin) | FIC (S. mitis SMI_116; compound G with Ceftriaxone) | FIC (S. mitis SMI_116; compound G with Gatifloxacin) | FIC (S. mitis SMI_116; compound G with Meropenem) | FIC (S. mitis SMI_116; compound G with Penicillin) | FIC (S. pneumoniae SP_22257) | FIC (S. pneumoniae SP_22425; compound G with Ceftriaxone) | FIC (S. pneumoniae SP_22425; compound G with Cefuroxime) | FIC (S. pneumoniae SP_22425; compound G with Gatifloxacin) | FIC (S. pneumoniae SP_22425; compound G with Levofloxacin) | FIC (S. pneumoniae SP_22425; compound G with Meropenem) | FIC (S. pyogenes SPY_20015) | FIC (S. pyogenes SPY_20061; compound G with Ceftriaxone) | FIC (S. pyogenes SPY_20061; compound G with Gatifloxacin)

From US7879872B2, “Compositions comprising multiple bioactive agents, and methods of using the same” (Affinium Pharmaceuticals, Inc., priority 2003, dated 2011)
